What all share (format): cell-based
Experiment [1] has as its target T1, mPiezo2 (Mus musculus, UniProt Q8CD54).
T1 construct: gene Piezo2; cDNA transiently transfected in HEK293T cells
Description: whole-cell patch clamp of mechanically activated currents, transfected HEK293T. The following applies: 10 μM Yoda1, up to 5 min, -80 mV; selectivity control. For orientation: Patch clamp records ionic current or voltage across a cell membrane.

Experiment [2] deals with T2, mPiezo1 (Mus musculus, UniProt E2JF22).
T2 construct: gene Piezo1; full-length cDNA transiently transfected in HEK293T (mPiezo1-IRES GFP for imaging and patch clamp); for bilayers purified protein as in Coste et al. 2012
The experiment in a line: FLIPR calcium influx (Fluo3), transfected HEK293T, 384-well. The following applies: agonist; pH 7.4, HBSS with 1.26 mM CaCl2; unreliable (compound insolubility above ~20 μM).

Experiment [3] concerns the target T3, hPiezo1 (Homo sapiens, UniProt Q92508).
T3 construct: gene PIEZO1; cDNA transiently transfected in HEK293T cells
The experiment is described as above. As to conditions: agonist; pH 7.4, HBSS with 1.26 mM CaCl2; unreliable (compound insolubility above ~20 μM).

The source of these data is article PMC4456433, “Chemical activation of the mechanotransduction channel Piezo1” (eLife, 2015).

T1 sequence (Q8CD54 whole entry): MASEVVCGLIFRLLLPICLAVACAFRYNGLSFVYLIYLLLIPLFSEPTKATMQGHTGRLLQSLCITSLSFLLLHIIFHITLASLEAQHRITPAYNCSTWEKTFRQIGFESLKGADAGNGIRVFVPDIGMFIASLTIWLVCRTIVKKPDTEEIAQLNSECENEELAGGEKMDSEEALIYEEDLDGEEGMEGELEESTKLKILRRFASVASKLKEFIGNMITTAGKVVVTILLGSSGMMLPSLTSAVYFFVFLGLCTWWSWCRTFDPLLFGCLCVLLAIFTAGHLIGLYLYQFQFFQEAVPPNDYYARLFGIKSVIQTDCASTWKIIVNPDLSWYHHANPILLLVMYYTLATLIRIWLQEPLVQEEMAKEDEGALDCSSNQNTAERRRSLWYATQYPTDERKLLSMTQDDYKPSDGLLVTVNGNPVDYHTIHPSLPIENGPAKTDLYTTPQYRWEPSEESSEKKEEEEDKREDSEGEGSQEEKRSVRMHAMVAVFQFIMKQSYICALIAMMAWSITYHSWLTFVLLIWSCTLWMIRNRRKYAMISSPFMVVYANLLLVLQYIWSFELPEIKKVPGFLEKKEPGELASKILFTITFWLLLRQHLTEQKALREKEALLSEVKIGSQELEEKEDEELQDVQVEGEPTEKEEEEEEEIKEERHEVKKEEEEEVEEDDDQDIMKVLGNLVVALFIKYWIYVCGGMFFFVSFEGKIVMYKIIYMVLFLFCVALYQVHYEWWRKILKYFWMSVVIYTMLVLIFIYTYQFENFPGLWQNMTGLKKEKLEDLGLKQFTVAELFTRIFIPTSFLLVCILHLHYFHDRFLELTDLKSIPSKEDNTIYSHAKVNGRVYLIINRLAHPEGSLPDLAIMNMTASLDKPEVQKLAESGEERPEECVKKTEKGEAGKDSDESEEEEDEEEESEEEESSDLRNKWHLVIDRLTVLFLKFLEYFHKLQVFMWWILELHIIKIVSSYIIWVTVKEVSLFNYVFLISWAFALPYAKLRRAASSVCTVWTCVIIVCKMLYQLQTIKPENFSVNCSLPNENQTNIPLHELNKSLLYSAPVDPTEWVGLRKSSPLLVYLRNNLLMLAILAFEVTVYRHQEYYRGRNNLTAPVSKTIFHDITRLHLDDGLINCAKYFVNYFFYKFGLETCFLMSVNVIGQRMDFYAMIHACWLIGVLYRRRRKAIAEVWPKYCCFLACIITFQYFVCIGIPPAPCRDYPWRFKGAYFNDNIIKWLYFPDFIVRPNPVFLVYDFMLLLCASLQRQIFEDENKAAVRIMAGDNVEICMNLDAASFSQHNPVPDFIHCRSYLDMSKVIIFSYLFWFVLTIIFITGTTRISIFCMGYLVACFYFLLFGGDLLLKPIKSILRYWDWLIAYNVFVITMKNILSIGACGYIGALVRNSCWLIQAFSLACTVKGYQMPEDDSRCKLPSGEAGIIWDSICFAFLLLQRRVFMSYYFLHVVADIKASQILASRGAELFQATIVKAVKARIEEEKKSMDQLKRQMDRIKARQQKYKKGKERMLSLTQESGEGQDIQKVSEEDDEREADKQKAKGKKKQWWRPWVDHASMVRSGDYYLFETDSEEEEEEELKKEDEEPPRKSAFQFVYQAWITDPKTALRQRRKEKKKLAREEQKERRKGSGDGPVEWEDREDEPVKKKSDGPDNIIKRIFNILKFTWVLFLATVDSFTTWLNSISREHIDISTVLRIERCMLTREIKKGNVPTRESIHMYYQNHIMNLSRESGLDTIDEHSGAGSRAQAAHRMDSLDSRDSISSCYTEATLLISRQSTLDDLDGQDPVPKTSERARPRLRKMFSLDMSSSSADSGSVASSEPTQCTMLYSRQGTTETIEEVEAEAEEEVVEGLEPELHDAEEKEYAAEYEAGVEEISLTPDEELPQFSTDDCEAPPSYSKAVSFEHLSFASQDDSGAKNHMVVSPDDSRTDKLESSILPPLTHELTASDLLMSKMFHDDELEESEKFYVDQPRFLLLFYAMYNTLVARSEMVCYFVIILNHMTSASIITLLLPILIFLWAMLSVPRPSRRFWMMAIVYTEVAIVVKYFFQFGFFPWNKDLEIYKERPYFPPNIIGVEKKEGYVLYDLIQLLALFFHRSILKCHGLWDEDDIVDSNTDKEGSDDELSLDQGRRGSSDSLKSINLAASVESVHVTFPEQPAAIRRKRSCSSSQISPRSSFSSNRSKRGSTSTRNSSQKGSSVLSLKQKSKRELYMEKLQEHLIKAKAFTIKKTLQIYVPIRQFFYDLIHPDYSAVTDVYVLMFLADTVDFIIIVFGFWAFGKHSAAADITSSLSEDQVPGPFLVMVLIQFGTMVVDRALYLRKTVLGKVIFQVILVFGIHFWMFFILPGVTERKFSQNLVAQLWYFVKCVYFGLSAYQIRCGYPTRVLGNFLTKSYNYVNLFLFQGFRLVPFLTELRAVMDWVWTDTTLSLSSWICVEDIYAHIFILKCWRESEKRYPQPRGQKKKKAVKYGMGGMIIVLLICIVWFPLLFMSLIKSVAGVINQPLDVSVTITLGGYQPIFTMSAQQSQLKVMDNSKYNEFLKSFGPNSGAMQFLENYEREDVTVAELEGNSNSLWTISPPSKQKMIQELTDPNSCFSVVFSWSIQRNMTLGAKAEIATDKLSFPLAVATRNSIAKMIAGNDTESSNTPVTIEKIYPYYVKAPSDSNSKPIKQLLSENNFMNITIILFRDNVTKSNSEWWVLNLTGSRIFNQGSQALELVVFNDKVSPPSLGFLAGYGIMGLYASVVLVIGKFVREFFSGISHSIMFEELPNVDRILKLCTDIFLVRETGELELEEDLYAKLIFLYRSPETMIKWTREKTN

For the molecule `Clc1cccc(Cl)c1CSc1nnc(-c2cnccn2)s1` [Yoda1], the “whole-cell patch clamp of mechanically activated currents, transfected HEK293T” value in experiment [1] is listed as “No effect was observed upon Yoda1 exposure”. Moreover, the “apparent EC50” value in experiment [2] was 17.1 (95% CI 13.4 to 21.9) μM; in experiment [3] it was 26.6 (95% CI 20.6 to 34.4) μM.
